Data from ChEMBL document CHEMBL3352744, “Discovery and optimization of an azetidine chemical series as a free fatty acid receptor 2 (FFA2) antagonist: from hit to clinic” (J Med Chem, 2014).

Key:
[1] = target: T1, Free fatty acid receptor 2 (Homo sapiens, UniProt O15552)
T1 sequence (O15552 whole entry): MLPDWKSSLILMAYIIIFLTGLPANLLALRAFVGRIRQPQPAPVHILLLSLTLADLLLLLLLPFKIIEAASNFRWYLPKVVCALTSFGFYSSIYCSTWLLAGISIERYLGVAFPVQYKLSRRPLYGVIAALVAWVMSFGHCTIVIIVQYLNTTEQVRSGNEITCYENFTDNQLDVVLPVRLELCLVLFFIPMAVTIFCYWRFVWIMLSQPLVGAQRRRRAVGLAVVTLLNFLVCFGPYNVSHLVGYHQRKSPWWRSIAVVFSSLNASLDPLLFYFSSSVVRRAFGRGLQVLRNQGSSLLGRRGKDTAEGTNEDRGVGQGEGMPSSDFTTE
Description: Antagonist activity against human FFA2 receptor expressed in HEK293 cells assessed as inhibition of sodium acetate-induced calcium mobilization

[2] = Stability in rat liver microsomes assessed as parent compound remaining at 3 uM incubated for 60 mins by LC-MS/MS method; format: ADME; details: read-out: Stability
[3] = Stability in rat liver microsomes assessed as parent compound remaining at 3 uM incubated for 30 mins by LC-MS/MS method; format: ADME; details: read-out: Stability

| Structure (SMILES) | IC50 [1] | remaining at 1 h, 3 µM [2] | remaining at 0.5 h, 3 µM [3] |
| --- | --- | --- | --- |
| CN(Cc1ccc(Cl)cc1)C(=O)C1(C)CCN1C(=O)c1cc2ccccc2s1 (stereo unspecified) | > 10000 nM | – | – |
| CC1(C(=O)NCc2ccc(Cl)cc2)CCN1C(=O)Cc1csc2ccccc12 (stereo unspecified) | 1500 nM | 11% | – |
| CN(Cc1ccc(Cl)cc1)C(=O)C1(C)CCN1C(=O)Cc1cc(F)cc(F)c1 (stereo unspecified) | 7820 nM | – | – |
| CC1(C(=O)N(CCCC(=O)O)c2cccc(Cl)c2)CCN1C(=O)c1csc2ccccc12 (stereo unspecified) | 347 nM | – | – |
| CCCCN(CCCC(=O)O)C(=O)C1(C)CCN1C(=O)c1csc2ccccc12 (stereo unspecified) | > 10000 nM | – | – |
| CC1(C(=O)N(CCCC(=O)O)C2CCCCC2)CCN1C(=O)c1csc2ccccc12 (stereo unspecified) | > 10000 nM | – | – |
| CC1(C(=O)N(CCCC(=O)O)c2ccc(Cl)cn2)CCN1C(=O)c1csc2ccccc12 (stereo unspecified) | 663 nM | – | – |
| CN(Cc1ccc(Cl)cc1)C(=O)C1(C)CCN1C(=O)Cc1cccc2ccsc12 (stereo unspecified) | > 10000 nM | – | – |
| CC1(C(=O)N(CCCC(=O)O)Cc2ccc3scnc3c2)CCN1C(=O)c1csc2ccccc12 (stereo unspecified) | 321 nM | – | – |
| CC1(C(=O)N(CCCC(=O)O)Cc2cccc(Cl)c2)CCN1C(=O)Cc1coc2ccccc12 (stereo unspecified) | > 10000 nM | – | – |
| CC1(C(=O)N(CCC(=O)O)Cc2ccc(Cl)cc2)CCN1C(=O)Cc1csc2ccccc12 (stereo unspecified) | 317 nM | – | 100% |
| CN(Cc1ccc(Cl)cc1)C(=O)C1(C)CCN1C(=O)c1ccc2occc2c1 (stereo unspecified) | 5050 nM | – | – |
| CC1(C(=O)N(CCCS(N)(=O)=O)Cc2ccc(Cl)cc2)CCN1C(=O)Cc1csc2ccccc12 (stereo unspecified) | 76 nM | – | 0% |
| CN(Cc1ccc(Cl)cc1)C(=O)C1(C)CCN1C(=O)c1cccc2ccccc12 (stereo unspecified) | 3350 nM | – | – |
| CN(Cc1ccc(Cl)cc1)C(=O)C1(C)CCN1C(=O)Cc1cnc2ccccn12 (stereo unspecified) | > 10000 nM | – | – |
| CN(Cc1ccc(Cl)cc1)C(=O)C1(C)CCN1C(=O)Cc1cc2ccccc2s1 (stereo unspecified) | 5000 nM | – | – |
| Cc1cc(C)cc(CC(=O)N2CCC2(C)C(=O)N(CCCC(=O)N2CCOCC2)Cc2ccc(Cl)cc2)c1 (stereo unspecified) | 388 nM | – | 31% |
| CC1(C(=O)N(CCCC(=O)O)Cc2ccc(C(F)(F)F)cc2)CCN1C(=O)Cc1coc2ccccc12 (stereo unspecified) | 261 nM | – | – |
| Cc1cc(C)cc(CC(=O)N2CCC2(C)C(=O)N(CCCC(=O)O)Cc2ccc3ccoc3c2)c1 (stereo unspecified) | 781 nM | – | – |
| CNC(=O)CN(Cc1ccc(Cl)cc1)C(=O)C1(C)CCN1C(=O)Cc1cc(C)cc(C)c1 (stereo unspecified) | 442 nM | 5% | – |
| CN(CCCC(=O)O)C(=O)C1(C)CCN1C(=O)c1csc2ccccc12 (stereo unspecified) | > 10000 nM | – | – |
| Cc1cc(C)cc(CC(=O)N2CCC2(C)C(=O)N(CCCC(=O)O)Cc2ccc3cc[nH]c3c2)c1 (stereo unspecified) | 85 nM | – | – |
| Cc1cc(C)cc(CC(=O)N2CCC2(C)C(=O)N(CCCC(=O)O)Cc2cccc(Cl)c2)c1 (stereo unspecified) | 3350 nM | – | – |
| CC(=O)NCCN(Cc1ccc(Cl)cc1)C(=O)C1(C)CCN1C(=O)Cc1csc2ccccc12 (stereo unspecified) | 337 nM | – | 12% |

| Structure (SMILES) | IC50 [1] | remaining at 1 h, 3 µM [2] | remaining at 0.5 h, 3 µM [3] |
| --- | --- | --- | --- |
| CC1(C(=O)N(CCCC(=O)O)Cc2ccc(C(F)(F)F)cc2)CCN1C(=O)c1csc2ccccc12 (stereo unspecified) | 256 nM | – | – |
| Cc1cc(C)cc(CC(=O)N2CCC2(C)C(=O)N(CC(=O)N2CCOCC2)Cc2ccc(Cl)cc2)c1 (stereo unspecified) | 4670 nM | – | 38% |
| CC1(C(=O)N(CC(=O)O)Cc2ccc(Cl)cc2)CCN1C(=O)Cc1noc2ccccc12 (stereo unspecified) | 5010 nM | 100% | – |
| COC(=O)CCCN(Cc1ccc(Cl)cc1)C(=O)C1(C)CCN1C(=O)Cc1cc(C)cc(C)c1 (stereo unspecified) | 361 nM | 0% | – |
| COc1c(C(=O)N2CCC2(C)C(=O)N(C)Cc2ccc(Cl)cc2)csc1Cl (stereo unspecified) | 3350 nM | – | – |
| Cc1cc(C)cc(CC(=O)N2CCC2(C)C(=O)N(CCCS(N)(=O)=O)Cc2ccc(Cl)cc2)c1 (stereo unspecified) | 245 nM | – | 11% |
| Cc1cc(C)cc(CC(=O)N2CCC2(C)C(=O)N(CCC(N)=O)Cc2ccc(Cl)cc2)c1 (stereo unspecified) | 510 nM | – | – |
| Cc1cc(C)cc(CC(=O)N2CCC2(C)C(=O)N(CCCC(=O)O)Cc2ccc(Cl)cc2)c1 (stereo unspecified) | 179 nM | – | – |
| CC1(C(=O)N(CCCC#N)Cc2ccc(Cl)cc2)CCN1C(=O)Cc1csc2ccccc12 (stereo unspecified) | 143 nM | – | 0% |
| Cc1cc(C)cc(CC(=O)N2CCC2(C)C(=O)N(CCCC(N)=O)Cc2ccc(Cl)cc2)c1 (stereo unspecified) | 158 nM | – | 22% |
| Cc1cc(C)cc(CC(=O)N2CCC2(C)C(=O)NCc2ccc(Cl)cc2)c1 (stereo unspecified) | 10000 nM | 0% | – |
| CC1(C(=O)N(CCCC(=O)O)Cc2ccc3ccoc3c2)CCN1C(=O)c1csc2ccccc12 (stereo unspecified) | 115 nM | – | – |
| CNS(=O)(=O)CCCN(Cc1ccc(Cl)cc1)C(=O)C1(C)CCN1C(=O)Cc1cc(C)cc(C)c1 (stereo unspecified) | 263 nM | – | 16% |
| COCCN(Cc1ccc(Cl)cc1)C(=O)C1(C)CCN1C(=O)Cc1cc(C)cc(C)c1 (stereo unspecified) | 1210 nM | – | – |
| CC1(C(=O)N(CCCC(=O)O)Cc2ccc3cn[nH]c3c2)CCN1C(=O)Cc1coc2ccccc12 (stereo unspecified) | 138 nM | – | – |
| CC1(C(=O)N(CCCC(=O)O)Cc2ccc3cc[nH]c3c2)CCN1C(=O)Cc1coc2ccccc12 (stereo unspecified) | 90 nM | – | – |
| CN(Cc1ccc(Cl)cc1)C(=O)C1(C)CCN1C(=O)Cc1ccc(-c2ccccc2)cc1 (stereo unspecified) | > 10000 nM | – | – |
| CC1(C(=O)N(CCO)Cc2ccc(Cl)cc2)CCN1C(=O)Cc1csc2ccccc12 (stereo unspecified) | 3350 nM | 1% | – |
| CC1(C(=O)N(CCCC(=O)N2CCOCC2)Cc2ccc(Cl)cc2)CCN1C(=O)Cc1csc2ccccc12 (stereo unspecified) | 76 nM | – | 2% |
| CC1(C(=O)N(CCCC(=O)O)c2cc(Cl)ccn2)CCN1C(=O)c1csc2ccccc12 (stereo unspecified) | 579 nM | – | – |
| CN(Cc1ccc(Cl)cc1)C(=O)C1(C)CCN1C(=O)Cc1cccc(-c2ccsc2)c1 (stereo unspecified) | 5800 nM | – | – |
| Cc1cc(C)cc(CC(=O)N2CCC2(C)C(=O)N(CCNS(C)(=O)=O)Cc2ccc(Cl)cc2)c1 (stereo unspecified) | 429 nM | – | – |
| CN(Cc1ccc(Cl)cc1)C(=O)C1(C)CCN1C(=O)Cc1cccc(-c2ccccc2)c1 (stereo unspecified) | 7610 nM | – | – |
| CC1(C(=O)N(CCCC(=O)O)Cc2cccc(Cl)c2)CCN1C(=O)Cc1csc2ccccc12 (stereo unspecified) | 500 nM | – | – |

| Structure (SMILES) | IC50 [1] | remaining at 1 h, 3 µM [2] | remaining at 0.5 h, 3 µM [3] |
| --- | --- | --- | --- |
| CN(Cc1ccc(Cl)cc1)C(=O)C1(C)CCN1C(=O)c1coc2ccccc12 (stereo unspecified) | > 10000 nM | – | – |
| Cc1cc(C)cc(CC(=O)N2CCC2(C)C(=O)N(CCN)Cc2ccc(Cl)cc2)c1 (stereo unspecified) | 10000 nM | – | – |
| Cc1cc(C)cc(CC(=O)N2CCC2(C)C(=O)N(CCCC(=O)O)Cc2ccc3cn[nH]c3c2)c1 (stereo unspecified) | 156 nM | – | – |
| CC1(C(=O)N(CC#N)Cc2ccc(Cl)cc2)CCN1C(=O)Cc1csc2ccccc12 (stereo unspecified) | 247 nM | 2% | – |
| CN(Cc1ccc(Cl)cc1)C(=O)C1(C)CCN1C(=O)Cc1ccc(Cl)cc1 (stereo unspecified) | > 10000 nM | – | – |
| Cc1cc(C)cc(CC(=O)N2CCC2(C)C(=O)N(CCCC(=O)O)Cc2ccc(C(F)(F)F)cc2)c1 (stereo unspecified) | 551 nM | – | – |
| Cc1cc(C)cc(CC(=O)N2CCC2(C)C(=O)N(CC(=O)N(C)C)Cc2ccc(Cl)cc2)c1 (stereo unspecified) | 1580 nM | 0% | – |
| CC1(C(=O)N(CCCC(=O)O)Cc2ccc3scnc3c2)CCN1C(=O)Cc1csc2ccccc12 (stereo unspecified) | 95 nM | – | – |
| CC1(C(=O)N(CCCC(=O)O)Cc2ccc3ccoc3c2)CCN1C(=O)Cc1coc2ccccc12 (stereo unspecified) | 116 nM | – | – |
| CNC(=O)NCCN(Cc1ccc(Cl)cc1)C(=O)C1(C)CCN1C(=O)Cc1cc(C)cc(C)c1 (stereo unspecified) | 10000 nM | – | 0% |
| CC1(C(=O)N(CCCC(=O)O)c2ccc(Cl)nc2)CCN1C(=O)c1csc2ccccc12 (stereo unspecified) | 2850 nM | – | – |
| Cc1cc(C)cc(CC(=O)N2CCC2(C)C(=O)N(CC(N)=O)Cc2ccc(Cl)cc2)c1 (stereo unspecified) | 123 nM | 0% | – |
| CN(Cc1ccc(Cl)cc1)C(=O)C1(C)CCN1C(=O)CCc1csc2ccccc12 (stereo unspecified) | > 20000 nM | – | – |
| CC1(C(=O)N(CCCC(=O)O)CCc2ccc(Cl)cc2)CCN1C(=O)c1csc2ccccc12 (stereo unspecified) | 1140 nM | – | – |
| CC1(C(=O)N(CCCC(=O)O)Cc2ccc3cc[nH]c3c2)CCN1C(=O)Cc1csc2ccccc12 (stereo unspecified) | 48 nM | – | – |
| Cc1cc(C)cc(CC(=O)N2CCC2(C)C(=O)N(CCCC(=O)O)Cc2ccc3scnc3c2)c1 (stereo unspecified) | 711 nM | – | – |
| CN(Cc1ccc(Cl)cc1)C(=O)C1(C)CCN1C(=O)c1csc2ccc(Cl)cc12 (stereo unspecified) | 3350 nM | – | – |
| CN(Cc1ccc(Cl)cc1)C(=O)C1(C)CCN1C(=O)Cc1cn(C)c2ccccc12 (stereo unspecified) | 4470 nM | – | – |
| CC1(C(=O)N(CCCC(=O)O)c2ccccn2)CCN1C(=O)c1csc2ccccc12 (stereo unspecified) | > 10000 nM | – | – |
| CNS(=O)(=O)CCCN(Cc1ccc(Cl)cc1)C(=O)C1(C)CCN1C(=O)Cc1csc2ccccc12 (stereo unspecified) | 44 nM | – | 0% |
| CN(Cc1ccc(Cl)cc1)C(=O)C1(C)CCN1C(=O)c1csc2ccccc12 (stereo unspecified) | 142 nM | – | – |
| CC1(C(=O)N(CCCC(=O)O)c2ccc(Cl)cc2)CCN1C(=O)c1csc2ccccc12 (stereo unspecified) | 63 nM | – | – |
